From patent US8796301B2, “Therapeutic or prophylactic agent for dyskinesia” (Toray Industries, Inc., priority 2007, dated 2014)

Tests used:
[1] = tested on: L-DOPA-induced dyskinesia in a rat model of Parkinson's disease; test: L-DOPA-induced dyskinesia in a rat model of Parkinson's disease (6-hydroxydopamine lesion), dyskinesia score; assay type: in vivo
[2] = tested on: dyskinesia; settings: WO00/003715; cited from earlier work

Compound	effect on L-DOPA-induced dyskinesia (dyskinesia score vs control score) ([1]; 10 μg/kg subcutaneous, simultaneously with L-DOPA 20 mg/kg oral, FIG. 1)	effect on L-DOPA-induced dyskinesia (dyskinesia score vs control score) ([1]; 10 mg/kg subcutaneous, with L-DOPA 20 mg/kg oral, FIG. 2, FIG. 3, FIG. 4)	effect on L-DOPA-induced dyskinesia (dyskinesia score vs control score) ([1]; 30 mg/kg subcutaneous, with L-DOPA 20 mg/kg oral, FIG. 4)	effect on dyskinesia [2]
CN(C(=O)/C=C/c1ccoc1)[C@@H]1CC[C@@]2(O)[C@H]3Cc4ccc(O)c5c4[C@@]2(CCN3CC2CC2)[C@H]1O5.Cl [Compound 1, (−)-17-(cyclopropylmethyl)-3,14β-dihydroxy-4,5α-epoxy-6β-[N-methyl-trans-3-(3-furyl)acrylamido]morphinan hydrochloride]	significantly suppressed dyskinesia			
COC(=O)/C=C/C(=O)N[C@@H]1CC[C@@]2(O)[C@H]3Cc4ccc(O)c5c4[C@@]2(CCN3CC2CC2)[C@H]1O5 [β-funaltrexamine]		did not influence L-DOPA-induced dyskinesia at all	did not influence L-DOPA-induced dyskinesia at all	suppresses dyskinesia
